BigSolDB 2.1

O=C(N[C@@H](Cc1ccc(O)cc1)C(=O)O)OCC1c2ccccc2-c2ccccc21
solubility (mole fraction) (in acetone, 293.15 K): 0.0683 | solubility (mole fraction) (in acetone, 298.15 K): 0.0723 | solubility (mole fraction) (in acetone, 303.15 K): 0.077 | solubility (mole fraction) (in acetone, 308.15 K): 0.078 | solubility (mole fraction) (in acetone, 313.15 K): 0.0824 | solubility (mole fraction) (in acetone, 318.15 K): 0.0901 | solubility (mole fraction) (in acetone, 323.15 K): 0.0959 | solubility (mole fraction) (in acetonitrile, 293.15 K): 0.00233 | solubility (mole fraction) (in acetonitrile, 298.15 K): 0.00272 | solubility (mole fraction) (in acetonitrile, 303.15 K): 0.00326 | solubility (mole fraction) (in acetonitrile, 308.15 K): 0.00382 | solubility (mole fraction) (in acetonitrile, 313.15 K): 0.00432 | solubility (mole fraction) (in acetonitrile, 318.15 K): 0.00504 | solubility (mole fraction) (in acetonitrile, 323.15 K): 0.00637 | solubility (mole fraction) (in acetonitrile, 328.15 K): 0.00781 | solubility (mole fraction) (in acetonitrile, 333.15 K): 0.00884 | solubility (mole fraction) (in dimethyl carbonate, 293.15 K): 0.00346 | solubility (mole fraction) (in dimethyl carbonate, 298.15 K): 0.00367 | solubility (mole fraction) (in dimethyl carbonate, 303.15 K): 0.0044 | solubility (mole fraction) (in dimethyl carbonate, 308.15 K): 0.00477 | solubility (mole fraction) (in dimethyl carbonate, 313.15 K): 0.00583 | solubility (mole fraction) (in dimethyl carbonate, 318.15 K): 0.00638 | solubility (mole fraction) (in dimethyl carbonate, 323.15 K): 0.00747 | solubility (mole fraction) (in dimethyl carbonate, 328.15 K): 0.00918 | solubility (mole fraction) (in dimethyl carbonate, 333.15 K): 0.0109 | solubility (mole fraction) (in ethyl acetate, 293.15 K): 0.0129 | solubility (mole fraction) (in ethyl acetate, 298.15 K): 0.0135 | solubility (mole fraction) (in ethyl acetate, 303.15 K): 0.014 | solubility (mole fraction) (in ethyl acetate, 308.15 K): 0.0152 | solubility (mole fraction) (in ethyl acetate, 313.15 K): 0.0164 | solubility (mole fraction) (in ethyl acetate, 318.15 K): 0.019 | solubility (mole fraction) (in ethyl acetate, 323.15 K): 0.0203 | solubility (mole fraction) (in ethyl acetate, 328.15 K): 0.0222 | solubility (mole fraction) (in ethyl acetate, 333.15 K): 0.0254 | solubility (mole fraction) (in isobutanol, 293.15 K): 0.00543 | solubility (mole fraction) (in isobutanol, 298.15 K): 0.00685 | solubility (mole fraction) (in isobutanol, 303.15 K): 0.00823 | solubility (mole fraction) (in isobutanol, 308.15 K): 0.00992 | solubility (mole fraction) (in isobutanol, 313.15 K): 0.0123 | solubility (mole fraction) (in isobutanol, 318.15 K): 0.0146 | solubility (mole fraction) (in isobutanol, 323.15 K): 0.0175 | solubility (mole fraction) (in isobutanol, 328.15 K): 0.0219 | solubility (mole fraction) (in isobutanol, 333.15 K): 0.0279 | solubility (mole fraction) (in isopropanol, 293.15 K): 0.0147 | solubility (mole fraction) (in isopropanol, 298.15 K): 0.0179 | solubility (mole fraction) (in isopropanol, 303.15 K): 0.0213 | solubility (mole fraction) (in isopropanol, 308.15 K): 0.027 | solubility (mole fraction) (in isopropanol, 313.15 K): 0.0307 | solubility (mole fraction) (in isopropanol, 318.15 K): 0.0385 | solubility (mole fraction) (in isopropanol, 323.15 K): 0.043 | solubility (mole fraction) (in isopropanol, 328.15 K): 0.0546 | solubility (mole fraction) (in isopropanol, 333.15 K): 0.0691 | solubility (mole fraction) (in methyl acetate, 293.15 K): 0.0155 | solubility (mole fraction) (in methyl acetate, 298.15 K): 0.0163 | solubility (mole fraction) (in methyl acetate, 303.15 K): 0.0173 | solubility (mole fraction) (in methyl acetate, 308.15 K): 0.0177 | solubility (mole fraction) (in methyl acetate, 313.15 K): 0.0209 | solubility (mole fraction) (in methyl acetate, 318.15 K): 0.0219 | solubility (mole fraction) (in methyl acetate, 323.15 K): 0.0249 | solubility (mole fraction) (in n-butanol, 293.15 K): 0.0129 | solubility (mole fraction) (in n-butanol, 298.15 K): 0.0151 | solubility (mole fraction) (in n-butanol, 303.15 K): 0.0178 | solubility (mole fraction) (in n-butanol, 308.15 K): 0.0198 | solubility (mole fraction) (in n-butanol, 313.15 K): 0.0231 | solubility (mole fraction) (in n-butanol, 318.15 K): 0.0281 | solubility (mole fraction) (in n-butanol, 323.15 K): 0.0319 | solubility (mole fraction) (in n-butanol, 328.15 K): 0.0385 | solubility (mole fraction) (in n-butanol, 333.15 K): 0.0463 | solubility (mole fraction) (in n-butyl acetate, 293.15 K): 0.00611 | solubility (mole fraction) (in n-butyl acetate, 298.15 K): 0.00636 | solubility (mole fraction) (in n-butyl acetate, 303.15 K): 0.00688 | solubility (mole fraction) (in n-butyl acetate, 308.15 K): 0.00765 | solubility (mole fraction) (in n-butyl acetate, 313.15 K): 0.00862 | solubility (mole fraction) (in n-butyl acetate, 318.15 K): 0.00933 | solubility (mole fraction) (in n-butyl acetate, 323.15 K): 0.00976 | solubility (mole fraction) (in n-butyl acetate, 328.15 K): 0.0118 | solubility (mole fraction) (in n-butyl acetate, 333.15 K): 0.0124 | solubility (mole fraction) (in n-pentanol, 293.15 K): 0.0111 | solubility (mole fraction) (in n-pentanol, 298.15 K): 0.0121 | solubility (mole fraction) (in n-pentanol, 303.15 K): 0.0144 | solubility (mole fraction) (in n-pentanol, 308.15 K): 0.0168 | solubility (mole fraction) (in n-pentanol, 313.15 K): 0.02 | solubility (mole fraction) (in n-pentanol, 318.15 K): 0.0231 | solubility (mole fraction) (in n-pentanol, 323.15 K): 0.0244 | solubility (mole fraction) (in n-pentanol, 328.15 K): 0.0324 | solubility (mole fraction) (in n-pentanol, 333.15 K): 0.0388 | solubility (mole fraction) (in n-propyl acetate, 293.15 K): 0.00762 | solubility (mole fraction) (in n-propyl acetate, 298.15 K): 0.00799 | solubility (mole fraction) (in n-propyl acetate, 303.15 K): 0.00861 | solubility (mole fraction) (in n-propyl acetate, 308.15 K): 0.00951 | solubility (mole fraction) (in n-propyl acetate, 313.15 K): 0.0104 | solubility (mole fraction) (in n-propyl acetate, 318.15 K): 0.0108 | solubility (mole fraction) (in n-propyl acetate, 323.15 K): 0.0126 | solubility (mole fraction) (in n-propyl acetate, 328.15 K): 0.0138 | solubility (mole fraction) (in n-propyl acetate, 333.15 K): 0.015 | solubility (mole fraction) (in sec-butanol, 293.15 K): 0.0146 | solubility (mole fraction) (in sec-butanol, 298.15 K): 0.018 | solubility (mole fraction) (in sec-butanol, 303.15 K): 0.0215 | solubility (mole fraction) (in sec-butanol, 308.15 K): 0.0263 | solubility (mole fraction) (in sec-butanol, 313.15 K): 0.0323 | solubility (mole fraction) (in sec-butanol, 318.15 K): 0.0388 | solubility (mole fraction) (in sec-butanol, 323.15 K): 0.0454 | solubility (mole fraction) (in sec-butanol, 328.15 K): 0.0538 | solubility (mole fraction) (in sec-butanol, 333.15 K): 0.0639
